Source: ChEMBL document CHEMBL2086220, “Selective cytotoxicity and apoptosis induction in glioma cell lines by 5-oxygenated-6,7-methylenedioxycoumarins from Pterocaulon species” (Eur J Med Chem, 2012)
Active and inactive are the calls of the source. The rule behind the calls is not given here.

Assays:
[1] = Cytotoxicity against human U138MG cells incubated for 48 hrs by MTT assay; assay type: functional, cell-based, U138-MG
C6 [2] = assay: Cytotoxicity against rat C6 cells incubated for 48 hrs by MTT assay; assay type: functional, cell-based
C6 [3] = assay: Induction of apoptotic cell death in rat C6 cells at 25 uM incubated for 24 hrs by Annexin V/PI staining based flow cytometry; assay type: functional
C6 [4] = assay: Induction of early apoptotic cell death in rat C6 cells at 100 uM incubated for 24 hrs by Annexin V/PI staining based flow cytometry; assay type: functional
Hippocampus = assay: Toxicity in Wistar rat organotypic hippocampal cultures at 100 uM incubated for 48 hrs by propidium iodide incorporation assay; assay type: tissue-based
C6 [5] = assay: Induction of apoptotic cell death in rat C6 cells at 50 uM incubated for 24 hrs by Annexin V/PI staining based flow cytometry; assay type: functional
[6] = Homo sapiens, U138-MG, 48 h, read-out: IC50
[7] = Rattus norvegicus, C6, 48 h, read-out: IC50

| Compound | IC50 ([1]; u138-mg) | IC50 (C6 [2]; c6) | IC50 [1, 6] | IC50 (C6 [2]; [7]) | other results |
| --- | --- | --- | --- | --- | --- |
| O=c1ccc2cc(O)c(O)cc2o1 [ESCULETIN] | Not Active | Not Active | – | – | – |
| CC(C)(O)C(O)COc1c2c(cc3oc(=O)ccc13)OCO2 (stereo not given) | – | – | 75.6 µM | 76.4 µM | – |
| O=c1ccc2cc(O[C@@H]3O[C@H](CO)[C@@H](O)[C@H](O)[C@H]3O)c(O)cc2o1 [ESCULIN] | Not Active | Not Active | – | – | – |
| CC(C)=CCOc1c2c(cc3oc(=O)ccc13)OCO2 | – | – | 65.4 µM | 77.5 µM | – |
| O=c1ccc2ccccc2o1 [COUMARIN] | Not Active | Not Active | – | – | – |
| O=c1ccc2ccc(O)cc2o1 [UMBELLIFERONE] | Not Active | Not Active | – | – | – |
| COc1c2c(cc3oc(=O)ccc13)OCO2 | – | – | 31.6 µM | 34.6 µM | Activity (C6 [3]): inactive; Activity (C6 [4]): Active; Activity (Hippocampus): Non-toxic; Activity (C6 [5]): inactive |
| Cn1nnc2c(C(N)=O)ncn2c1=O [TEMOZOLOMIDE] | – | – | 26 µM | 34 µM | – |
